In assay [1] the target is human ERK-2 (Mitogen Activated Kinase 1) (Homo sapiens (Human), UniProt P28482). Description: ERK-2 Enzymatic Assay. The class given is biochemical. As to conditions: 5 nM ERK-2, 25 μM ATP, Omnia peptide S/T17; read-out: ERK Inhibition IC50. The method, then: Compounds were tested in an enzymatic assay using human ERK-2 (Mitogen Activated Kinase 1), recombinantly expressed as an n-terminal 6-His fusion protein in E. coli and corresponding to aa 8-360. The substrate used was the fluorescent Omnia peptide S/T17 (Invitrogen of Carlsbad, Calif.; Cat. KNZ1171C). Test compounds were diluted in DMSO in 3-fold serial dilutions at 100× final concentrations. […] The assay was run at ambient temperature in a white 384-well polypropylene plate (Nunc, Inc of Naperville, Ill.; Cat. 267462) collecting data every 50 seconds for approximately 30 minutes on an Envision plate reader (PerkinElmer, Inc. of Waltham, Mass.); Excitation 340 nm/Emission 495 nm. The data collected from each well was fit to a straight line and the resulting rates were used to calculate percent of control. Percent of control was plotted against compound concentration and IC50 values were determined using a four-parameter fit.
human ERK-2 (Mitogen Activated Kinase 1), sequence (P28482 8-360): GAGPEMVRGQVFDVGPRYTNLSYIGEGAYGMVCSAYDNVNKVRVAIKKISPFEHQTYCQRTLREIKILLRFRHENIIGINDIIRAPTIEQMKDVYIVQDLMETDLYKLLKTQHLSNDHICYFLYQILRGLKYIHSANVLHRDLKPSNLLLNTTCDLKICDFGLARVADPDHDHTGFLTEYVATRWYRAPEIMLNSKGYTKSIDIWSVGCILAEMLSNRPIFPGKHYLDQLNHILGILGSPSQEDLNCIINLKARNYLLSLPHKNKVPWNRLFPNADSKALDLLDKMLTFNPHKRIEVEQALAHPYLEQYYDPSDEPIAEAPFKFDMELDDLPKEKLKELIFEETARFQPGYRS

In assay [2] the test system is PMA-stimulated P90RSK(Ser380) phosphorylation in HepG2 cells. Description: Cellular P90RSK(Ser380) Phosphorylation Assay. The following applies: Homo sapiens, 1.5 h compound incubation, PMA stimulation, pP90RSK(Ser380) normalized to GAPDH, read-out: Cell Assay IC50. The class given is cell-based. The method, then: Inhibition of PMA-stimulated P90RSK(Ser380) phosphorylation was determined by the following in vitro cellular mechanistic assay, which comprises incubating cells with a compound for 1.5 hours and quantifying fluorescent pP90RSK(Ser380) signal on fixed cells and normalizing to GAPDH signal.
Materials and Methods: HepG2 cells were obtained from ATCC and grown in DMEM supplemented with 10% fetal bovine serum. Cells were plated in 96-well plates at 35,000 cells/well and allowed to attach overnight at 37° C./5% CO2. Diluted compounds were then added at a final concentration of 0.5% DMSO. After 1.5 hour compound incubation, cells were stimulated with the addition of PMA (phorbol 12-myristate 13-acetate) at a final concentration of 100 ng/mL; the PMA stimulation was a 30-minute incubation at 37° C./5% CO2. After the 30-minute PMA stimulation, cells were washed with PBS and fixed in 3.7% formaldehyde in PBS at room temperature for 15-20 minutes. This was followed by another wash in PBS and then permeabilization in 100% MeOH at room temperature for 10-15 minutes. Following the permeabilization incubation, cells were washed in PBS/0.05% Tween-20, followed by a block in Odyssey blocking buffer (LI-COR Biosciences) for at least 1 hour. Antibodies to phosphorylated P90RSK(Ser380) (Cell Signaling #9335, rabbit monoclonal) and GAPDH (Fitzgerald 10R-G109a, mouse monoclonal) were added to the cells and incubated overnight at 4° C. pP90RSK(Ser380) antibody was used at a 1:250 dilution; GAPDH was used at a 1:10,000 dilution. After washing with PBS/0.05% Tween-20, the cells were incubated with fluorescently-labeled secondary antibodies (Anti-rabbit-Alexa Flour680, Invitrogen Cat#A21109; Anti-mouse-IRDye800CW, Rockland Inc. Cat#610-131-121) for 1 hour. Both secondary antibodies were used at a 1:1000 dilution. Cells were then washed and analyzed for fluorescence at both wavelengths using the Odyssey Infrared Imaging System (LI-COR Biosciences). Phosphorylated P90RSK(Ser380) signal was normalized to GAPDH signal. Representative date is in TABLE III (infra).

With `CC(C)Nc1ncc2c(n1)CN(C(=O)N[C@@H](c1ccc(F)c(Cl)c1)[C@H](C)O)CC2` [II-40, 2-Isopropylamino-5,8-dihydro-6H-pyrido[3,4-d]pyrimidine-7-carboxylic acid [(1S,2S)-1-(3-chloro-4-fluoro-phenyl)-2-hydroxy-propyl]-amide], the figures for the IC50 in assay [1] and in assay [2] were 0.00323 µM and 0.0873 µM, respectively.

Consider `C[C@@H](CO)Nc1ncc2c(n1)CN(C(=O)NCc1cnc(C(F)(F)F)nc1)CC2` [Compound I-109, 2-((S)-2-Hydroxy-1-methyl-ethylamino)-5,8-dihydro-6H-pyrido[3,4-d]pyrimidine-7-carboxylic acid (2-trifluoromethyl-pyrimidin-5-ylmethyl)-amide], for which the IC50 (usually the concentration needed to halve the response being measured) in assay [1] amounted to 0.0927 µM; in assay [2], 3.3 µM.

For `Cn1cc(C(NC(=O)N2CCc3cnc(NC4CCOCC4)nc3C2)c2ccc(Cl)c(F)c2)cn1` (centres unmarked) [Compound I-5, N-((4-chloro-3-fluorophenyl)(1-methyl-1H-pyrazol-4-yl)methyl)-2-(tetrahydro-2H-pyran-4-ylamino)-5,6-dihydropyrido[3,4-d]pyrimidine-7(8H)-carboxamide], the results for the IC50 in assay [1] and in assay [2] were 0.0014 µM and 0.0473 µM, respectively.

Take `CC(C)Nc1ncc2c(n1)CN(C(=O)N[C@@H](c1ccc(Cl)c(Cl)c1)[C@H](O)CO)CC2` [Compound I-62, N-((1S,2S)-1-(3,4-dichlorophenyl)-2,3-dihydroxypropyl)-2-(isopropylamino)-5,6-dihydropyrido[3,4-d]pyrimidine-7(8H)-carboxamide]: the half-maximal inhibitory concentration (IC50) in assay [1] worked out at 0.0024 µM; in assay [2], 0.109 µM.

For the molecule `C[C@@H](NC(=O)N1Cc2nc(NC3CCOCC3)ncc2C(F)(F)C1)c1ccc(Cl)c(Cl)c1` [Compound I-50, (R)—N-(1-(3,4-dichlorophenyl)ethyl)-5,5-difluoro-2-(tetrahydro-2H-pyran-4-ylamino)-5,6-dihydropyrido[3,4-d]pyrimidine-7(8H)-carboxamide], the results for the half-maximal inhibitory concentration (IC50) in assay [1] and in assay [2] were 0.0016 µM and 0.0283 µM, respectively.

On to `CC(C)Nc1ncc2c(n1)CN(C(=O)N[C@H](CCN)c1ccc(C(F)(F)F)cc1)CC2` [Compound I-119, (R)—N-(3-amino-1-(4-(trifluoromethyl)phenyl)propyl)-2-(isopropylamino)-5,6-dihydropyrido[3,4-d]pyrimidine-7(8H)-carboxamide], for which the values for the IC50 in assay [1] and in assay [2] were 0.0018 µM and 0.694 µM, respectively.

Regarding `CCCC(NC(=O)N1CCc2cnc(N[C@@H](C)CO)nc2C1)c1ccc(OC)c(F)c1` (some centres unmarked) [II-415, 2-(2-Hydroxy-1-methyl-ethylamino)-5,8-dihydro-6H-pyrido[3,4-d]pyrimidine-7-carboxylic acid [1-(3-fluoro-4-methoxy-phenyl)-butyl]-amide], the figures for the IC50 in assay [1] and in assay [2] were 0.0023 µM and 0.0395 µM, respectively.

As for `CC(C)Nc1ncc2c(n1)CN(C(=O)NC1(c3ccc(Cl)c(Cl)c3)CCNCC1)CC2` [Compound I-93, N-(4-(3,4-dichlorophenyl)piperidin-4-yl)-2-(isopropylamino)-5,6-dihydropyrido[3,4-d]pyrimidine-7(8H)-carboxamide], the concentration for half-maximal inhibition (IC50) in assay [1] was 0.0038 µM; in assay [2] it was 6.2 µM.

As to `O=C(NC(c1ccc(Cl)c(F)c1)c1nnco1)N1CCc2cnc(NC3CCOCC3)nc2C1` (stereo in doubt) [II-359, 2-(Tetrahydro-pyran-4-ylamino)-5,8-dihydro-6H-pyrido[3,4-d]pyrimidine-7-carboxylic acid [(R)-(4-chloro-3-fluoro-phenyl)-[1,3,4]oxadiazol-2-yl-methyl]-amide], the concentration for half-maximal inhibition (IC50) in assay [1] worked out at 0.0024 µM; in assay [2], 0.03 µM.

Consider `CC[C@@H](NC(=O)N1CCc2cnc(N[C@H]3CC[C@H](O)C3)nc2C1)c1ccc(C(F)(F)F)c(F)c1` [Compound I-37, N—((R)-1-(3-fluoro-4-(trifluoromethyl)phenyl)propyl)-2-((1S,3S)-3-hydroxycyclopentylamino)-5,6-dihydropyrido[3,4-d]pyrimidine-7(8H)-carboxamide], for which the IC50 in assay [1] stood at 0.0048 µM; in assay [2], 0.093 µM.

On to `C[C@H](Cc1ccc(Cl)cc1)NC(=O)N1CCc2cnc(N[C@@H](C)CO)nc2C1` [II-136, 2-(2-Hydroxy-1-methyl-ethylamino)-5,8-dihydro-6H-pyrido[3,4-d]pyrimidine-7-carboxylic acid [2-(4-chloro-phenyl)-1-methyl-ethyl]-amide], for which the values for the IC50 in assay [1] and in assay [2] were 0.0022 µM and 0.464 µM, respectively.

For `N#CCN1C[C@@H](NC(=O)N2CCc3cnc(NC4CCOCC4)nc3C2)[C@H](c2ccc(F)c(F)c2)C1` [II-341, 2-(Tetrahydro-pyran-4-ylamino)-5,8-dihydro-6H-pyrido[3,4-d]pyrimidine-7-carboxylic acid [(3S,4R)-1-cyanomethyl-4-(3,4-difluoro-phenyl)-pyrrolidin-3-yl]-amide], the IC50 in assay [1] is 0.004 µM; in assay [2] it was 0.371 µM.

`Cc1nccc(Nc2ncc3c(n2)CN(C(=O)N[C@H](C)c2ccc(Cl)c(Cl)c2)CC3)n1` [II-126, 2-(2-Methyl-pyrimidin-4-ylamino)-5,8-dihydro-6H-pyrido[3,4-d]pyrimidine-7-carboxylic acid [(R)-1-(3,4-dichloro-phenyl)-ethyl]-amide]: the IC50 was found to be 0.0069 µM in assay [1] and 0.141 µM in assay [2].

For the molecule `O=C(NCc1ccc2cc[nH]c2c1)N1CCc2cnc(NC3CCOCC3)nc2C1` [II-223, 2-(Tetrahydro-pyran-4-ylamino)-5,8-dihydro-6H-pyrido[3,4-d]pyrimidine-7-carboxylic acid (1H-indol-6-ylmethyl)-amide], the values for the IC50 in assay [1] and in assay [2] were 0.0057 µM and 0.186 µM, respectively.

For the molecule `O=C(N[C@@H](c1ccc(Cl)c(F)c1)c1ccno1)N1CCc2cnc(NC3CCOCC3)nc2C1` [Compound I-12, (S)—N-((4-chloro-3-fluorophenyl)(isoxazol-5-yl)methyl)-2-(tetrahydro-2H-pyran-4-ylamino)-5,6-dihydropyrido[3,4-d]pyrimidine-7(8H)-carboxamide], the half-maximal inhibitory concentration (IC50) in assay [1] came to 0.004 µM; in assay [2] it was 0.235 µM.

Take `COCC[C@@H](CO)Nc1ncc2c(n1)CN(C(=O)N[C@H](C)c1ccc(Cl)c(Cl)c1)CC2` [II-399, 2-((S)-1-Hydroxymethyl-3-methoxy-propylamino)-5,8-dihydro-6H-pyrido[3,4-d]pyrimidine-7-carboxylic acid [(R)-1-(3,4-dichloro-phenyl)-ethyl]-amide]: the IC50 in assay [1] is 0.00303 µM; in assay [2], 0.287 µM.

As for `CC(C)Nc1ncc2c(n1)CN(C(=O)N[C@H](CNc1ncccn1)c1ccc(F)c(Cl)c1)CC2` [II-50, 2-Isopropylamino-5,8-dihydro-6H-pyrido[3,4-d]pyrimidine-7-carboxylic acid [(S)-1-(3-chloro-4-fluoro-phenyl)-2-(pyrimidin-2-ylamino)-ethyl]-amide], the IC50 in assay [1] turned out to be 0.00443 µM; in assay [2], 1 µM.

As for `CC(CF)Nc1ncc2c(n1)CN(C(=O)N[C@H](CO)c1ccc(Cl)c(Cl)c1)CC2` (stereo partly drawn) [Compound I-60, N—((S)-1-(3,4-dichlorophenyl)-2-hydroxyethyl)-2-(1-fluoropropan-2-ylamino)-5,6-dihydropyrido[3,4-d]pyrimidine-7(8H)-carboxamide], the figures for the IC50 in assay [1] and in assay [2] were 0.0033 µM and 0.1 µM, respectively.

Consider `CC1(C)CC[C@@H]([C@@H](NC(=O)N2CCc3cnc(NC4CCOCC4)nc3C2)c2ccc(C(F)(F)F)cc2F)N1` [Compound I-86, N—((S)—((S)-5,5-dimethylpyrrolidin-2-yl)(2-fluoro-4-(trifluoromethyl)phenyl)methyl)-2-(tetrahydro-2H-pyran-4-ylamino)-5,6-dihydropyrido[3,4-d]pyrimidine-7(8H)-carboxamide], for which the IC50 in assay [1] stood at 0.148 µM; in assay [2] it was 3.6 µM.

Source of the values: US9133187B2, “Serine/threonine kinase inhibitors” (ARRAY BIOPHARMA INC., priority 2011, dated 2015).
